Tests used:
[1] = Pharmacokinetic studies (in vivo clearance); conditions: comparison among N-1 to N-4
[2] = tested on: androgen-responsive tissues (prostate, seminal vesicles and levator ani muscle) of castrated rats; experiment: Androgenic and anabolic activity in castrated rat model, 14 days of administration; conditions: for prostate, seminal vesicle and levator ani muscle weights: 14 days (FIG. 3); for prostate and seminal vesicle weights / Levator Ani organ weight / Prostate organ weight / Seminal Vesicles organ weight: 14 days; for prostate and seminal vesicle weights: % of that observed in intact animals (FIG. 1); for Levator Ani organ weight / Prostate organ weight / Seminal Vesicles organ weight: mean ± S.D.
[3] = compared with testosterone propionate (FIG. 3)

Compound: C[C@](O)(COc1ccc(C#N)cc1)C(=O)Nc1ccc(C#N)c(C(F)(F)F)c1 [Compound N-4]
- in vivo clearance [1]: lowest in vivo clearance
- weight of the levator ani muscle ([2]; 1 mg/day for 14 days): 142%±17%
- in vivo pharmacologic activity ([2]; 1 mg/day for 14 days, comparison among N-1 to N-4): greatest activity

Compound: C[C@](O)(COc1ccc(C#N)cc1)C(=O)Nc1ccc([N+](=O)[O-])c(C(F)(F)F)c1 [Compound N-2]
- weight of the levator ani muscle ([2]; 1 mg/day for 14 days): 119%±16%

Compound: C[C@](O)(COc1ccc(Cl)cc1)C(=O)Nc1ccc(C#N)c(C(F)(F)F)c1 [Compound 6]
- prostate, seminal vesicle and levator ani muscle weights ([2]; 0.1-1.0 mg/day): dose-dependent increases
- potency and intrinsic activity in increasing the weight of levator ani muscle [2, 3]: greater potency and intrinsic activity
- potency and intrinsic activity in increasing the weights of prostate and seminal vesicle [2, 3]: lower potency and intrinsic activity
- levator ani muscle weight ([2]; dose as low as 0.3 mg/day, versus intact animals (FIG. 3)): same level as that of intact animals

Compound: C[C@](O)(COc1ccc(F)cc1)C(=O)Nc1ccc([N+](=O)[O-])c(C(F)(F)F)c1 [Compound 1]
- prostate and seminal vesicle weights ([2]; 0.1-1.0 mg/day): less than 20%

Compound: C[C@](O)(COc1ccc(I)cc1)C(=O)Nc1ccc([N+](=O)[O-])c(C(F)(F)F)c1 [Compound 4]
- prostate and seminal vesicle weights ([2]; 0.1-1.0 mg/day): less than 20%

Compound: C[C@](O)(COc1ccc([N+](=O)[O-])cc1)C(=O)Nc1ccc([N+](=O)[O-])c(C(F)(F)F)c1 [Compound N-1]
- weight of the levator ani muscle ([2]; 1 mg/day for 14 days): 105%±13%

Compound: CCC(=O)O[C@H]1CC[C@H]2[C@@H]3CCC4=CC(=O)CC[C@]4(C)[C@H]3CC[C@]12C [testosterone propionate, reference compound]
- prostate, seminal vesicle and levator ani muscle weights ([2]; 0.1-1.0 mg/day): dose-dependent manner

Compound: C[C@](O)(COc1ccc(Br)cc1)C(=O)Nc1ccc([N+](=O)[O-])c(C(F)(F)F)c1 [Compound 3]
- prostate and seminal vesicle weights ([2]; 0.1-1.0 mg/day): less than 20%

Compound: C[C@](O)(COc1ccc(F)cc1)C(=O)Nc1ccc(C#N)c(C(F)(F)F)c1 [Compound 5]
- Levator Ani organ weight ([2]; 0.10 mg/day): 54.9 ± 5.77 % of intact
- Prostate organ weight ([2]; 0.10 mg/day): 6.4 ± 0.82 % of intact
- Seminal Vesicles organ weight ([2]; 0.10 mg/day): 8.8 ± 1.18 % of intact
- Levator Ani organ weight ([2]; 0.50 mg/day): 55.0 ± 9.23 % of intact
- Prostate organ weight ([2]; 0.50 mg/day): 6.2 ± 0.56 % of intact
- Seminal Vesicles organ weight ([2]; 0.50 mg/day): 9.3 ± 1.57 % of intact
- Levator Ani organ weight ([2]; 0.75 mg/day): 68.9 ± 8.46 % of intact
- Prostate organ weight ([2]; 0.75 mg/day): 7.6 ± 0.74 % of intact
- Seminal Vesicles organ weight ([2]; 0.75 mg/day): 9.8 ± 3.65 % of intact
- Levator Ani organ weight ([2]; 1.00 mg/day): 75.2±9.51 % of intact
- Prostate organ weight ([2]; 1.00 mg/day): 8.7±1.39 % of intact
- Seminal Vesicles organ weight ([2]; 1.00 mg/day): 10.7±0.91 % of intact

Compound: C[C@](O)(COc1ccc([N+](=O)[O-])cc1)C(=O)Nc1ccc(C#N)c(C(F)(F)F)c1 [Compound N-3]
- weight of the levator ani muscle ([2]; 1 mg/day for 14 days): 130%±5%

Compound: C[C@](O)(COc1ccc(Cl)cc1)C(=O)Nc1ccc([N+](=O)[O-])c(C(F)(F)F)c1 [Compound 2]
- levator ani muscle weight ([2]; 0.1-1.0 mg/day, 14 days (FIG. 1), versus intact animals): same level as that of intact animals
- prostate and seminal vesicle weights ([2]; 0.1-1.0 mg/day): less than 40%
